Results reported in patent publication US20200179402A1, “MONOHYDROXYLATED 17ALPHA-HYDROXYPROGESTERONE CAPROATE FOR REDUCING CONTRACTILITY” (Indiana University Research and Technology Corporation, priority 2016, published 2020).

Experiments:
human myometrial tissue = assay: Oxytocin-induced uterine contractility in human myometrial tissue strips (myograph); assay type: cell-based; settings: oxytocin 100 nm; for oxytocin-induced contractile frequency / oxytocin-induced contractile force (AUC): 10^−6 M for 30 minutes, over a 4-hour period, normalized to matched vehicle control (DMSO)
Method: In this Example, the effect of the monohydroxylated 17α-hydroxyprogesterone caproate (HPC-OH), 17α-hydroxyprogesteryl 6-hydroxycaproate, as compared to its parent compound, 17-hydoxyprogesterone caproate (HPC), and progesterone (P4) was analyzed in the setting of oxytocin-induced uterine contractility in human myometrial tissue. […] Myometrial strips (10 mm) were mounted in a digital myograph system ([…]) and maintained in modified Krebs buffer solution at physiologic temperature (37° C.) with constant premixed gas inflow. Oxytocin-induced (100 nm) contractility was measured before and after treatment with HPC-OH, HPC, or P4 (1 μm) for 30 minutes. Myometrial contractile frequency and force (AUC) were determined for each treatment over a 4-hour period and normalized to a matched vehicle control (DMSO). Statistical analysis was by student t-test (GraphPad Prism 7.0a). Statistical significance was defined as p<0.05.

THP-1 mononuclear cells = assay: LPS-induced cytokine production by THP-1 mononuclear cells (multiplex assay); assay type: cell-based; settings: 100 nM for 24 hours, then LPS 1 μg/mL for 24 hours
Method: In this Example, the ability of HPC—OH to decrease systemic inflammation-induced myometrial contractility was compared to HPC and progesterone (P4).
(§1) An in vitro model of systemic inflammation-induced uterine contractility was created with mononuclear and myometrial cell cultures to assess the effect of progestogen treatment. THP-1 mononuclear cells were cultured with HPC—OH (17α-hydroxyprogesteryl 6-hydroxycaproate), HPC, or P4 (all at 100 nM) for 24 hours then treated with lipopolysaccharide (LPS, 1 μg/mL) for 24 hours. Culture supernatant was characterized by multiplex assay for 7 inflammation-related cytokines: IL-1α, […], IL-6, IL-8, IL-10, TNFα, and MCP-1. Next, PHM1-41 human pregnancy myometrial cells pretreated with HPC for 24 hours were incubated with THP-1 culture supernatant (from the previous step) for 24 hours. Myometrial contractility was assessed after stimulation with 100 μM oxytocin by in-cell western (ICW) quantification of myosin light chain (MLC20) phosphorylation, a molecular event preceding contractility.

[1] = women with history of prior spontaneous preterm birth, clinical trials; cited from earlier work
[2] = Pharmacokinetics in pregnant patients given intramuscular hydroxyprogesterone caproate; settings: female, human, plasma, im, 250 mg; for AUC: AUC(1-t); for AUC / Cmax / Tmax: 250 mg intramuscular; for AUC / Cmax: mean (standard deviation)
Method: (§2) Female patients with a singleton pregnancy received intramuscular doses of 250 mg hydroxyprogesterone caproate for the reduction of preterm birth starting between 16 weeks 0 days and 20 weeks 6 days. More particularly, the patients were divided into three sample groups: Group 1 (patients at 16-20 weeks gestation); Group 2 (patients at 24-28 weeks gestation); and Group 3 (patients at 32-36 weeks gestation). All patients had blood drawn daily for 7 days to evaluate pharmacokinetics.

[3] = system: PHM1-41 human pregnancy myometrial cells; assay: MLC20 phosphorylation by in-cell western in HPC-primed myometrial cells incubated with THP-1 culture supernatant; assay type: cell-based; settings: supernatant of treated THP-1 cells for 24 hours, 100 μM oxytocin
Method: as §1

[4] = human, in vivo
Method: as §2

[5] = Group 1 (16-20 weeks gestation, N = 6)
[6] = Group 2 (24-28 weeks gestation, N = 8)
[7] = Group 3 (32-36 weeks gestation, N = 11)

CCCCCC(=O)O[C@]1(C(C)=O)CC[C@H]2[C@@H]3CCC4=CC(=O)CC[C@]4(C)[C@H]3CC[C@@]21C [HPC, 17α-hydroxyprogesterone caproate]
oxytocin-induced contractile frequency (human myometrial tissue): 71%+/−15% | production of IL-10 (THP-1 mononuclear cells): significantly reduced | production of MCP-1 (THP-1 mononuclear cells): decreased | significantly increase TNFα production (THP-1 mononuclear cells): significantly increase | risk reduction of recurrent preterm delivery [1]: 33% | half-life [2]: 394 h | AUC [2, 5]: 571 ng·h/mL | AUC [2, 6]: 1270 ng·h/mL | AUC [2, 7]: 1270 ng·h/mL | Cmax [2, 5]: 5 ng/mL | Cmax [2, 6]: 12.5 ng/mL | Cmax [2, 7]: 12.3 ng/mL | Tmax [2, 5]: 132 h | Tmax [2, 6]: 24 h | Tmax [2, 7]: 48 h

CC(=O)[C@@]1(OC(=O)CCCCCO)CC[C@H]2[C@@H]3CCC4=CC(=O)CC[C@]4(C)[C@H]3CC[C@@]21C [HPC—OH, 17α-hydroxyprogesteryl 6-hydroxycaproate]
oxytocin-induced contractile force (AUC) (human myometrial tissue): 66%+/−33% | oxytocin-induced contractile frequency (human myometrial tissue): 67%+/−21% | contractile force when compared directly to HPC (human myometrial tissue; 10^−6 M, compared directly to HPC): 64%+/−33% | monocyte production of IL-1α (THP-1 mononuclear cells): did not result in a statistically significant change | monocyte production of IL-1β (THP-1 mononuclear cells): did not result in a statistically significant change | monocyte production of IL-6 (THP-1 mononuclear cells): did not result in a statistically significant change | monocyte production of IL-8 (THP-1 mononuclear cells): did not result in a statistically significant change | production of IL-10 (THP-1 mononuclear cells): did not diminish | production of MCP-1 (THP-1 mononuclear cells): decreased | significantly increase TNFα production (THP-1 mononuclear cells): not | levels of TNFα produced, compared with exposure to HPC (THP-1 mononuclear cells; versus HPC): significantly lower | MLC20 phosphorylation compared with HPC treated supernatant ([3]; versus HPC treated supernatant): trended towards a significant decline | half-life as compared to HPC [4]: longer half-life

CC(=O)[C@H]1CC[C@H]2[C@@H]3CCC4=CC(=O)CC[C@]4(C)[C@H]3CC[C@]12C [P4, progesterone]
oxytocin-induced contractile force (AUC) (human myometrial tissue): 75%+/−30% | oxytocin-induced contractile frequency (human myometrial tissue): 63%+/−18% | production of IL-10 (THP-1 mononuclear cells): did not diminish | MLC20 phosphorylation [3]: Increased phosphorylation
